Experimental data published in US20140179519A1, “N-THIO-ANTHRANILAMIDE COMPOUNDS AND THEIR USE AS PESTICIDES” (BASF SE, priority 2011, published 2014).

Tests used:
[1] = test system: Orchid thrips (Dichromothrips corbetti); assay: CE.1 Orchid thrips floral-immersion test, comparison with comparative compounds; assay type: in vivo; conditions: for % activity (mortality of Orchid thrips in %, vs. untreated control): floral immersion, 72 hours after treatment
Protocol: (§1) The activity summarized in the tables hereinbelow are given as percentage of mortality in comparison with untreated control
Dichromothrips corbetti adults used for bioassay were obtained from a colony maintained continuously under laboratory conditions. For testing purposes, the test compound is diluted in a 1:1 mixture of acetone:water (vol:vol), plus 0.01% vol/vol Alkamuls® EL 620 surfactant.
Thrips potency of each compound was evaluated by using a floral-immersion technique. Plastic petri dishes were used as test arenas. All petals of individual, intact orchid flowers were dipped into treatment solution and allowed to dry. Treated flowers were placed into individual petri dishes along with about 20 adult thrips. The petri dishes were then covered with lids. All test arenas were held under continuous light and a temperature of about 28° C. for duration of the assay. After 3 days, the numbers of live thrips were counted on each flower, and along inner walls of each petri dish. The percent mortality was recorded 72 hours after treatment.

[2] = test system: Rice green leafhopper (Nephotettix virescens); assay: CE.2 Rice green leafhopper spray test on rice seedlings, comparison with comparative compound; assay type: in vivo; conditions: for % activity (mortality of Rice green leafhopper in %, vs. untreated control): sprayed rice seedlings, after 72 hours
Protocol: as §1
Rice seedlings were cleaned and washed 24 hours before spraying. The active compounds were formulated in 50:50 acetone:water (vol:vol), and 0.1% vol/vol surfactant (EL 620) was added. Potted rice seedlings were sprayed with 5 ml test solution, air dried, placed in cages and inoculated with 10 adults. Treated rice plants were kept at about 28-29° C. and relative humidity of about 50-60%. Percent mortality was recorded after 72 hours.

[3] = percent mortality 72 hours after treatment

Cc1cc(Cl)cc(C(=O)N=S(C)C)c1NC(=O)c1cc(C(F)F)nn1-c1ncccc1Cl [Compound 4]
% activity (mortality of Orchid thrips in %, vs. untreated control) ([1]; 10 ppm active ingredient): 95%
% activity (mortality of Orchid thrips in %, vs. untreated control) ([1]; 100 ppm active ingredient): 100%
% activity (mortality of Orchid thrips in %, vs. untreated control) ([1]; 300 ppm active ingredient): 100%
activity against Orchid thrips in comparison with comparative compound CC-1 [1, 3]: superior activity

Cc1cc(Cl)cc(C(=O)N=S(C(C)C)C(C)C)c1NC(=O)c1cc(C(F)F)nn1-c1ncccc1Cl [Compound 25]
% activity (mortality of Rice green leafhopper in %, vs. untreated control) ([2]; 100 ppm active ingredient): 50%
% activity (mortality of Rice green leafhopper in %, vs. untreated control) ([2]; 300 ppm active ingredient): 100%
% activity (mortality of Rice green leafhopper in %, vs. untreated control) ([2]; 500 ppm active ingredient): 100%
activity against Rice green leafhopper in comparison with comparative compound CC-2 ([2]; percent mortality after 72 hours): superior activity
% activity (mortality of Orchid thrips in %, vs. untreated control) ([1]; 10 ppm active ingredient): 95%
% activity (mortality of Orchid thrips in %, vs. untreated control) ([1]; 100 ppm active ingredient): 100%
% activity (mortality of Orchid thrips in %, vs. untreated control) ([1]; 300 ppm active ingredient): 100%
activity against Orchid thrips in comparison with comparative compound CC-2 [1, 3]: superior activity
